Results as given in US4526898A, “Antihypertensive 4-(2-imidazolin-2-yl-amino)-2-methyl-indazole” (priority 1983, dated 1985).
Like-named read-outs stand apart in the source and are kept apart here.

Key:
[1] = Toxicity LD50 in mouse; settings: in vivo
Method: (§1) Toxicity values were determined applying identical standard methods. The data obtained are listed herebelow in Table II showing LD50 values as mg/kg body weight.

[2] = Antihypertensive activity in nephrogenic GOLDBLATT hypertensive rats; format: in vivo, rat; settings: in vivo, po; GOLDBLATT hypertensive rats, p.o.; LD50 rat p.o.; read-out: therapeutic index LD50 /ED50
Method: (§2) Antihypertensive activities for Sgd 101/75 of the invention and Sgd 230/75 of U.S. Pat. No. 4,036,976 were determined with nephrogenic GOLDBLATT hypertensive rats.

[3] = tested on: nephrogenic GOLDBLATT hypertensive rats; test: as above; format: in vivo, rat; settings: for ED50: Rattus norvegicus, po, nephrogenic GOLDBLATT hypertensive rats
Method: as §2

[4] = tested on: genetically fixed hypertension rats; settings: p.o., prior art background; cited from earlier work
[5] = Toxicity LD50 in rat; settings: in vivo
Method: as §1

[6] = tested on: Mouse; test: Inhibition of acetic acid-induced writhing; format: in vivo; settings: po, read-out: Effective dose: 50% inhibition of acetic acid-induced writhing
Method: (§3) All tests were carried out under identical conditions according to standard testing methods. The animal species used, the route of administering the material to be tested, the type of test and the results obtained are shown in Table I hereunder.

[7] = tested on: Mouse; test: Inhibition of heat-induced tail flick; format: in vivo; settings: po, read-out: Effective dose: 50% inhibition of heat-induced tail flick
Method: as §3

[8] = tested on: conscious cats; test: Behavioural observation in conscious cats; format: in vivo, cat
[9] = tested on: Mouse; test: Doubling of hexobarbitone sodium sleeping time (CNS activity); format: in vivo; settings: po, read-out: Effective dose: Double hexobarbitone sodium sleeping time
Method: as §3

[10] = tested on: Rat; test: Doubling of chloralhydrate sleeping time (CNS activity); format: in vivo; settings: po, read-out: Effective dose: Double chloralhydrate sleeping time
Method: as §3

[11] = tested on: Mouse; test: Reduction in exploratory behaviour; format: in vivo; settings: po, read-out: Effective dose: 50% reduction in exploratory behaviour
Method: as §3

[12] = tested on: Mouse; test: Doubling of ethanol sleeping time (CNS activity); format: in vivo; settings: po, read-out: Effective dose: Double ethanol sleeping time
Method: as §3

[13] = tested on: Mouse; test: Reduction of 5HTP-induced head twitches; format: in vivo; settings: sc, read-out: Effective dose: 50% reduction of 5HTP-induced head twitches
Method: as §3

[14] = tested on: Rat; test: Reduction in tetrabenazine-induced ptosis; format: in vivo; settings: po, read-out: Effective dose: 50% reduction in tetrabenazine-induced ptosis
Method: as §3

[15] = tested on: drug-metabolising enzymes in the liver; test: Induction of drug-metabolising enzymes in the liver; settings: summary statement
[16] = tested on: adrenaline vasopressor effect; test: Adrenaline antagonism (adrenaline reversal) in anaesthetised cats; format: in vivo, cat; settings: adrenaline i.v., 5 to 10 mg/kg b.w. intraduodenally
Excerpt: Experimental hypertension was induced in anaesthetised cats by administering (i.v.) adrenaline.

[17] = tested on: extra-cellular calcium controlled α1s -adrenoceptors; test: Adrenoceptor activity, α1s; settings: summary statement
[18] = tested on: α1 -adrenoceptors; test: Adrenoceptor activity, α1; settings: summary statement
[19] = tested on: α2 -adrenoceptors; test: Adrenoceptor activity, α2; settings: summary statement
[20] = Blood-brain barrier penetration; settings: summary statement

| SMILES | LD50 ([1]; iv) | LD50 ([1]; po) | selectivity ratio [2] | ED50 [3] | LD50 ([5]; iv) | LD50 ([5]; po) | ED50 [6] | ED50 [7] | ED (2-fold sleeping time) [9] | ED (2-fold sleeping time) [10] | ED50 [11] | ED (2-fold sleeping time) [12] | ED50 [13] | also measured |
| --- | --- | --- | --- | --- | --- | --- | --- | --- | --- | --- | --- | --- | --- | --- |
| Cn1ncc2c(NC3=NCCN3)cccc21 [Sgd 230/75, 4-(2-imidazolin-2-yl-amino)-1-methyl-indazole, reference compound] | 22 mg/kg | 600 mg/kg | 400 | 3 mg/kg | 90 mg/kg | 1200 mg/kg | – | – | – | – | – | – | – | therapeutic index LD50 /ED50 [4]: 800 |
| Clc1cccc(Cl)c1N=C1NCCN1 [Clonidine, 2-((2,6-dichloro-phenyl)-imino)-imidazolidine, reference compound] | – | – | – | – | – | – | 0.07 mg/kg | 5 mg/kg | 0.3 mg/kg | 0.05 mg/kg | 0.12 mg/kg | 0.02 mg/kg | 0.028 mg/kg | Behavioural changes / CNS depression ([8]; 1 mg/kg i.p.): signs of CNS depression; ED50 ([14]; Rat, p.o.): 0.3 mg/kg |
| Cn1cc2c(NC3=NCCN3)cccc2n1 [Sgd 101/75, 4-(2-imidazolin-2-yl-amino)-2-methyl-indazole] | 58 mg/kg | 3900 mg/kg | 767 | 4.2 mg/kg | 69 mg/kg | 3220 mg/kg | 4.5 mg/kg | > 100 mg/kg | > 100 mg/kg | > 100 mg/kg | 72 mg/kg | > 100 mg/kg | 28 mg/kg | Induction of drug-metabolising enzymes in the liver [15]: does not induce drug-metabolising enzymes in the liver; anti-hypertensive activity relative to the prior art compound ([3]; relative to Sgd 230/75, taking into account LD50 values (rat, p.o.)): about 190%; Behavioural changes / CNS depression ([8]; 4 and 10 mg/kg i.p.): no apparent behavioural changes; Effect on adrenaline vasopressor effect (adrenaline reversal) [16]: conversion of the vasopressor effect of adrenaline into a depressor response; Activity on α1s -adrenoceptors [17]: complete and highly specific agonist; ED50 ([14]; Rattus norvegicus): 33 mg/kg; Activity on α1 -adrenoceptors [18]: partial agonist; Activity on α2 -adrenoceptors [19]: complete antagonist; Penetration of the blood-brain barrier [20]: does not readily penetrate the blood-brain barrier |
